One assay concerns the target T1, Tolloid-like protein 2 (Homo sapiens, UniProt Q9Y6L7).
T1 sequence (Q9Y6L7 whole entry): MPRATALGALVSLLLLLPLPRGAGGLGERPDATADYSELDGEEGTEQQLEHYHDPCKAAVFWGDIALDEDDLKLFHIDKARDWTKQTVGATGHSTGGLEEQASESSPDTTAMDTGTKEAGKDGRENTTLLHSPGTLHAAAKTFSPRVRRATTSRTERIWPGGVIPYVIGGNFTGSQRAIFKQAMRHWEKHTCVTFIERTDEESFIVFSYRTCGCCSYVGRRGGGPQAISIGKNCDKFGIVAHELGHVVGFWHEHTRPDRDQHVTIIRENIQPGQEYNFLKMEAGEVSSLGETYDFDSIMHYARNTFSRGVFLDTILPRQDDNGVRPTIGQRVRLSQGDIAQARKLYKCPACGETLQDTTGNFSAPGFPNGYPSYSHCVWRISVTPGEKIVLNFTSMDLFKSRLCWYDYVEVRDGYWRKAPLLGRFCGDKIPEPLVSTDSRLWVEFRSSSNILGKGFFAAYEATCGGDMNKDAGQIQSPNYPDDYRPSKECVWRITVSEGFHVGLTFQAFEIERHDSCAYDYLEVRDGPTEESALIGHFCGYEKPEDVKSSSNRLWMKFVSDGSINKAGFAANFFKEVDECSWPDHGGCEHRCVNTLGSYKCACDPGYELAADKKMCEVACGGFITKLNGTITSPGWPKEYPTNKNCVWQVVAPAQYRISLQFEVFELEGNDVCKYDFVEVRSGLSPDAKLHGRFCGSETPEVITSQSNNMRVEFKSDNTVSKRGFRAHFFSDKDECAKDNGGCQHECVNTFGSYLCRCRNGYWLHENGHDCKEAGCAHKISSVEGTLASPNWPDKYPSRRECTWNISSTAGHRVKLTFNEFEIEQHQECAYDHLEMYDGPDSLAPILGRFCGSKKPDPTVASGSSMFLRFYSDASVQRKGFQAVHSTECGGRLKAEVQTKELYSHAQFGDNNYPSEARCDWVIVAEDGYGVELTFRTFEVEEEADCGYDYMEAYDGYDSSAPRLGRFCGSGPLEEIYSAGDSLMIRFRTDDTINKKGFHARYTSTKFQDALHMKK
Kind of assay: Inhibition of C-terminal Avi-6x-His epitope tagged and N-terminal human RAGE signal sequence tagged recombinant human TLL2 (26 to 1015 amino acids) expressed in CHOE1A cells incubated for 60 mins with promyostatin peptide substrate by FRET based assay. It is filed as cell-based.

For assay [1], the target named is T2, Bone morphogenetic protein 1 (Homo sapiens, UniProt P13497).
T2 sequence (P13497 whole entry): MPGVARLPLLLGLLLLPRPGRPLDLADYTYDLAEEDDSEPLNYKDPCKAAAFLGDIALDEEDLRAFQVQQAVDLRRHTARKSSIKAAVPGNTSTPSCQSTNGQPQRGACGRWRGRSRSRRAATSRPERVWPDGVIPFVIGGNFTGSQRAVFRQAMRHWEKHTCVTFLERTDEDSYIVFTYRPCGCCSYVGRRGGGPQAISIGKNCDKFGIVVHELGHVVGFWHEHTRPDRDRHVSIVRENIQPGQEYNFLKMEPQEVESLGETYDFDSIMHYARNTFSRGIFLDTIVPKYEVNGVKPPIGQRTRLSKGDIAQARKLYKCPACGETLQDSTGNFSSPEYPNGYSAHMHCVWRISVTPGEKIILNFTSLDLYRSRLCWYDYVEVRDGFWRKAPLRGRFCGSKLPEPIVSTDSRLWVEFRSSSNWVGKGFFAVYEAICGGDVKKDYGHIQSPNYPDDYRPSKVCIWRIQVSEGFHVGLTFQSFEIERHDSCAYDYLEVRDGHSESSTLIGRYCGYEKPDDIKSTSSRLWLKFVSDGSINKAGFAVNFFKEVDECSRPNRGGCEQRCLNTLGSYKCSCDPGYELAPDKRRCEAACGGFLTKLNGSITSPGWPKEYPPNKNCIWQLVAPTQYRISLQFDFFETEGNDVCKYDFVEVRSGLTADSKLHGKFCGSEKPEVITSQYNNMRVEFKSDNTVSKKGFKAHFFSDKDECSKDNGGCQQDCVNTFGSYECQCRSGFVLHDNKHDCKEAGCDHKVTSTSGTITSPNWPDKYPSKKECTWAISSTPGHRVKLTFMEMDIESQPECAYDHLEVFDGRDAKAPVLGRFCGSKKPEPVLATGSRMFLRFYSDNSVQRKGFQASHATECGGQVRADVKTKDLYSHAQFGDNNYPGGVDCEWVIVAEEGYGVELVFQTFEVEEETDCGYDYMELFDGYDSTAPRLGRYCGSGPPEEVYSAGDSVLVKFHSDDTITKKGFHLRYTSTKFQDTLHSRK
Kind of assay: Inhibition of C-terminal FLAG-6x-His epitope tagged and N-terminal human RAGE signal sequence tagged human BMP1 (23 to 721 amino acids) expressed in CHO-E1 cells pre-incubated for 10 mins before promyostatin peptide substrate addition and measured after 30 mins using 50 nM BMP1 by FRET based assay. The assay is classed as cell-based.

Assay [2] concerns the target T2, Bone morphogenetic protein 1. Kind of assay: Inhibition of C-terminal FLAG-6x-His epitope tagged and N-terminal human RAGE signal sequence tagged human BMP1 (23 to 721 amino acids) expressed in CHO-E1 cells pre-incubated for 10 mins before promyostatin peptide substrate addition and measured after 60 mins using 0.5 nM BMP1 by FRET based assay. It is filed as cell-based.

The next assay addresses Tolloid-like protein 1 (Homo sapiens, UniProt O43897, I156V/N221S/V284A). In words: Inhibition of recombinant human TLL1 I156V/N221S/V284A mutant expressed in CHOE1A cells pre-incubated for 10 mins before promyostatin peptide substrate addition and measured after 60 mins by FRET based assay. It is filed as cell-based.
Assay [3] is described as follows: Reduction in PICP levels in human cardiac fibroblasts incubated for 24 to 48 hrs by ELISA. It is filed as functional. An outline of the steps: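 Procollagen I C-terminal propeptide in the culture medium was quantified using a Quidel ELISA. The cells were human cardiac fibroblasts of passage 6 or below, seeded at 10,000 to 15,000 cells per well in 96-well plates and treated the next day in ficoll crowding EMEM with 100 μM ascorbic acid and under 0.3% DMSO. Treatment lasted 24 to 48 hr at 37° C. For IC50, levels normalized to untreated controls were fitted to a log(inhibitor)-response equation in GraphPad Prism.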
For orientation: ELISA stands for enzyme-linked immunosorbent assay.

The structures appear in SMILES notation.

Results on 20 compounds are retold here after ChEMBL document CHEMBL4476867, “Hydroxy formamide derivatives and their use” (2016).

Tolloid-like protein 1, sequence (O43897 148-1013 I156V/N221S/V284A limits assumed): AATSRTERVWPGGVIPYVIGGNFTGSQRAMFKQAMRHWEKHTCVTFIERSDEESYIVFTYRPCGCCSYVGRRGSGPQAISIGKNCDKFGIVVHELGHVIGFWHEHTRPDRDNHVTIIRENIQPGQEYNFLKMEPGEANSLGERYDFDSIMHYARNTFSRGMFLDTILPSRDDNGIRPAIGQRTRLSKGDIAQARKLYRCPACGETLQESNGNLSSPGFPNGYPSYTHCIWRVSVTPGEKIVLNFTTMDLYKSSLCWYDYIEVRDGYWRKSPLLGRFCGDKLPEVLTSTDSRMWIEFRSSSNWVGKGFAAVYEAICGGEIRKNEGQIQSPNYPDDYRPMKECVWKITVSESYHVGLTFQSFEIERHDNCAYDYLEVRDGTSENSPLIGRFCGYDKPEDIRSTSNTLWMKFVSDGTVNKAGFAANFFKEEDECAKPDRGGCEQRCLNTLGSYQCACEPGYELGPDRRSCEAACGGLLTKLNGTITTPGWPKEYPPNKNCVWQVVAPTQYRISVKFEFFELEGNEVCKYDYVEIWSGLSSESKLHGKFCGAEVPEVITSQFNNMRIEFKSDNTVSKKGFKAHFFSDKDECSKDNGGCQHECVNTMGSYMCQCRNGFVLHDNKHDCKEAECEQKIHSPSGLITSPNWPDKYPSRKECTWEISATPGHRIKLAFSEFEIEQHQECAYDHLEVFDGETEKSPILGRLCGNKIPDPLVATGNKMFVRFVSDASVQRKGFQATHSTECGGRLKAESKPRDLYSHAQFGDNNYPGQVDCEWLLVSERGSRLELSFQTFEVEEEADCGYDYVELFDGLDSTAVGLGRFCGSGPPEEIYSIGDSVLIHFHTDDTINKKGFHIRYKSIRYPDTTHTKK

For orientation: IC50 means the concentration that gives 50% inhibition. On to `CCCCC[C@H](CN(O)C=O)C(=O)NCNC(=O)c1ccc(-c2cccc(OCC)c2)o1`, for which the IC50 is less than 0.794 µM at Tolloid-like protein 2; less than 0.2 µM in assay [1]; less than 0.126 µM in assay [2]; less than 0.398 µM at Tolloid-like protein 1; less than 3.98 µM in assay [3].
Consider `CCCCC[C@@H](C(=O)NCNC(=O)c1ccc(-c2ccc(CC(=O)O)c(OCC)c2)o1)[C@@H](CC)N(O)C=O`, for which the IC50 on Tolloid-like protein 2 is less than 0.794 µM; in assay [1], less than 0.2 µM; in assay [2] it was less than 0.126 µM; on Tolloid-like protein 1 it was less than 0.398 µM; in assay [3] it was less than 3.98 µM.
For `CCCCC[C@H](CN(O)C=O)C(=O)NCNC(=O)c1ccc(-c2cccc(OCC(F)(F)F)c2)o1`, the IC50 on Tolloid-like protein 2 was less than 0.794 µM; in assay [1], less than 0.2 µM; in assay [2], less than 0.126 µM; at Tolloid-like protein 1, less than 0.398 µM; in assay [3], less than 3.98 µM.
On to `CCCCC[C@@H](C(=O)NCNC(=O)c1ccc(-c2ccc(C3(C(=O)O)CC3)cc2)o1)[C@@H](CC)N(O)C=O`, for which the IC50 at Tolloid-like protein 2 was less than 0.794 µM; in assay [1], less than 0.2 µM; in assay [2], less than 0.126 µM; at Tolloid-like protein 1 it was less than 0.398 µM; in assay [3], less than 3.98 µM.
With `CCCCC[C@@H](C(=O)NCNC(=O)c1ccc(-c2ccc(C(C)(C)C(=O)O)cc2)o1)[C@@H](CC)N(O)C=O`, the IC50 at Tolloid-like protein 2 is less than 0.794 µM; in assay [1] it was less than 0.2 µM; in assay [2], less than 0.126 µM; at Tolloid-like protein 1, less than 0.398 µM; in assay [3] it was less than 3.98 µM.
Turning to `CCCCC[C@H](CN(O)C=O)C(=O)NCNC(=O)c1ccc(-c2cccc(N(C)C)c2)o1`, the IC50 is less than 0.794 µM on Tolloid-like protein 2; less than 0.2 µM in assay [1]; less than 0.126 µM in assay [2]; less than 0.398 µM on Tolloid-like protein 1; less than 3.98 µM in assay [3].
As for `CCCCC[C@@H](C(=O)NCNC(=O)c1ccc(-c2ccc(CC(=O)O)cc2)o1)[C@@H](CC)N(O)C=O`, the IC50 was less than 0.794 µM on Tolloid-like protein 2; less than 0.2 µM in assay [1]; less than 0.126 µM in assay [2]; less than 0.398 µM at Tolloid-like protein 1; less than 3.98 µM in assay [3].
Regarding `CCCCC[C@H](CN(O)C=O)C(=O)NCNC(=O)c1ccc(-c2cccc(OC(F)F)c2)o1`, the IC50 on Tolloid-like protein 2 was less than 0.794 µM; in assay [1] it was less than 0.2 µM; in assay [2], less than 0.126 µM; at Tolloid-like protein 1 it was less than 0.398 µM; in assay [3], less than 3.98 µM.
For the compound `CCCCC[C@H](CN(O)C=O)C(=O)NCNC(=O)c1ccc(-c2cc(OC)ccn2)o1`, the IC50 on Tolloid-like protein 2 is less than 0.794 µM; in assay [1] it was less than 0.2 µM; in assay [2], less than 0.126 µM; on Tolloid-like protein 1, less than 0.398 µM; in assay [3] it was less than 3.98 µM.
Consider `CCCCC[C@H](CN(O)C=O)C(=O)NCNC(=O)c1ccc(-c2cc(OCC)cc(C(=O)OC)c2)o1`, for which the IC50 at Tolloid-like protein 2 was less than 0.794 µM; in assay [1] it was less than 0.2 µM; in assay [2], less than 0.126 µM; at Tolloid-like protein 1 it was less than 0.398 µM; in assay [3], less than 3.98 µM.
For the compound `CCCCC[C@H](CN(O)C=O)C(=O)NCNC(=O)c1ccc(-c2cccc(OC(F)(F)F)c2)o1`, the IC50 at Tolloid-like protein 2 was less than 0.794 µM; in assay [1], less than 0.2 µM; in assay [2] it was less than 0.126 µM; on Tolloid-like protein 1, less than 0.398 µM; in assay [3], less than 3.98 µM.
The matching figures for `CCCCC[C@H](CN(O)C=O)C(=O)NCNC(=O)c1ccc(-c2cccc(C(=O)OC)c2)o1`: less than 0.794 µM, less than 0.2 µM, less than 0.126 µM, less than 0.398 µM and less than 3.98 µM.
In the case of `CCCCC[C@@H](C(=O)NCNC(=O)c1ccc(-c2cc(OCC)cc(C(=O)N[C@@H](CCC(=O)O)C(=O)OC(C)(C)C)c2)o1)[C@@H](CC)N(O)C=O`, the IC50 at Tolloid-like protein 2 is less than 0.794 µM; in assay [1] it was less than 0.2 µM; in assay [2] it was less than 0.126 µM; at Tolloid-like protein 1, less than 0.398 µM; in assay [3], less than 3.98 µM.
For `CCCCC[C@H](CN(O)C=O)C(=O)NCNC(=O)c1ccc(-c2cccc(S(=O)(=O)NC(=O)CC)c2)o1` the same measures were less than 0.794 µM, less than 0.2 µM, less than 0.126 µM, less than 0.398 µM and less than 3.98 µM.
For `CCCCC[C@@H](C(=O)NCNC(=O)c1ccc(-c2cc(OCC)cc(C(=O)N[C@@H](CCC(=O)OC)C(=O)OC)c2)o1)[C@@H](CC)N(O)C=O` the same measures were less than 0.794 µM, less than 0.2 µM, less than 0.126 µM, less than 0.398 µM and less than 3.98 µM.
Regarding `CCCCC[C@H](CN(O)C=O)C(=O)NCNC(=O)c1ccc(-c2cc(OCC)cc(C(=O)O)c2)o1`, the IC50 is less than 0.794 µM at Tolloid-like protein 2; less than 0.2 µM in assay [1]; less than 0.126 µM in assay [2]; less than 0.398 µM at Tolloid-like protein 1; less than 3.98 µM in assay [3].
Regarding `CCCCC[C@H](CN(O)C=O)C(=O)NCNC(=O)c1ccc(-c2cccc(S(=O)(=O)NC)c2)o1`, the IC50 on Tolloid-like protein 2 is less than 0.794 µM; in assay [1], less than 0.2 µM; in assay [2] it was less than 0.126 µM; at Tolloid-like protein 1, less than 0.398 µM; in assay [3] it was less than 3.98 µM.
For the compound `CCCCC[C@H](CN(O)C=O)C(=O)NCNC(=O)c1ccc(-c2cc(OC)cc(C(=O)O)c2)o1`, the IC50 was less than 0.794 µM on Tolloid-like protein 2; less than 0.2 µM in assay [1]; less than 0.126 µM in assay [2]; less than 0.398 µM at Tolloid-like protein 1; less than 3.98 µM in assay [3].
In the case of `CCCCC[C@H](CN(O)C=O)C(=O)NCNC(=O)c1ccc(-c2cc(OC)cc(C(=O)NCCN)c2)o1`, the IC50 was less than 0.794 µM at Tolloid-like protein 2; less than 0.2 µM in assay [1]; less than 0.126 µM in assay [2]; less than 0.398 µM at Tolloid-like protein 1; less than 3.98 µM in assay [3].
For `CCCCC[C@@H](C(=O)NCNC(=O)c1ccc(-c2cc(OCC)cc(C(=O)NCCN)c2)o1)[C@@H](CC)N(O)C=O`, the IC50 was less than 0.794 µM at Tolloid-like protein 2; less than 0.2 µM in assay [1]; less than 0.126 µM in assay [2]; less than 0.398 µM on Tolloid-like protein 1; less than 3.98 µM in assay [3].
